Measurements as given in ChEMBL document CHEMBL1142502, “An endoplasmic reticulum (ER) stress-suppressive compound and its analogues from the mushroom Hericium erinaceum” (Bioorg Med Chem, 2008).
Calls of active or inactive are those of the source. No cut-off for these calls is given here.

Experiments:
Type in all cases: functional, cell-based
N2a [1] = assay: Protection against tunicamycin-induced endoplasmic reticulum stress-dependent mouse Neuro2a cells death upto 10 ug/ml after 24 hrs by MTT assay
N2a [2] = assay: Protection against thapsigargin-induced endoplasmic reticulum stress-dependent mouse Neuro2a cells death upto 10 ug/ml after 24 hrs by MTT assay
N2a [3] = assay: Protection against tunicamycin-induced endoplasmic reticulum stress-dependent mouse Neuro2a cells death after 24 hrs by MTT assay
N2a [4] = assay: Protection against thapsigargin-induced endoplasmic reticulum stress-dependent mouse Neuro2a cells death after 24 hrs by MTT assay

## COc1cc2c(c(O)c1C/C=C(\C)CCC=C(C)C)C(=O)OC2
N2a [1]
  Activity: inactive
N2a [2]
  Activity: inactive

## CCCCCCCCCCCCCCCC(=O)OCc1cc(OC)c2c(c1C=O)O[C@@](C)(CC(=O)C=C(C)C)[C@@H](O)C2 (relative stereo)
N2a [3]
  Activity: Dose-dependent effect
N2a [4]
  Activity: Dose-dependent effect

## COc1cc2c(c3c1CCC(C)(CC(=O)C=C(C)C)O3)COC2=O (racemic)
N2a [1]
  Activity: inactive
N2a [2]
  Activity: inactive
